Each structure is given as a SMILES string. Values joined by “and” are separate entries in the source; they are usually repeats but may differ in a detail not shown here. Equal values may be shown once. Toxic doses and inconclusive results are not listed.

The values that follow come from PubChem BioAssay AID330 (DTP/NCI, 2004).

For the test, the system named is P388 leukemia ip, CD2F1 mice, survival T/C. As to the kind of experiment: NCI In Vivo Anticancer Drug Screen. Data for tumor model P388 Leukemia (intraperitoneal) in CD2F1 (CDF1) mice. The conditions noted are these: endpoint: median survival time, higher = longer survival. Summed up: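 Mice carrying the transplanted tumor received test compound or vehicle. Survival was recorded in each group, and the value is the treated-group measurement divided by that of the vehicle-treated control group.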

Setting [1] is: dose: 100.0 mg/kg/injection, schedule: Q01DX001 (ip), vehicle: saline with Tween-80.
The mark [2] stands for this setting: dose: 200.0 mg/kg/injection, schedule: Q01DX001 (ip), vehicle: saline with Tween-80.
Setting [3] is: dose: 60.0 mg/kg/injection, schedule: Q01DX005 (ip), vehicle: saline.
Setting [4] is: dose: 120.0 mg/kg/injection, schedule: Q01DX005 (ip), vehicle: saline.
[5] abbreviates: dose: 240.0 mg/kg/injection, schedule: Q01DX005 (ip), vehicle: saline.
Setting [6] is: dose: 100.0 mg/kg/injection, schedule: Q01DX009 (ip), vehicle: saline with Tween-80.

Regarding `Nn1cnnc1SCc1ccccc1`, the T/C runs as follows: (dose: 100.0 mg/kg/injection, schedule: Q01DX001 (ip), vehicle: other) 100 % of control; (dose: 200.0 mg/kg/injection, schedule: Q01DX001 (ip), vehicle: other) 100 % of control; (dose: 400.0 mg/kg/injection, schedule: Q01DX001 (ip), vehicle: other) 100 % of control.
For `CNC(=S)NNc1ccccn1`, the T/C was 105 % of control (dose: 12.5 mg/kg/injection, schedule: Q01DX009 (ip), vehicle: other); 102 % of control (dose: 25.0 mg/kg/injection, schedule: Q01DX009 (ip), vehicle: other); 104 % of control (dose: 50.0 mg/kg/injection, schedule: Q01DX009 (ip), vehicle: other); 101 % of control (dose: 100.0 mg/kg/injection, schedule: Q01DX009 (ip), vehicle: other); 95 % of control (dose: 200.0 mg/kg/injection, schedule: Q01DX009 (ip), vehicle: other).
As to `CCCCCCCCCCCC(CCCCCCCCCC)CCCCCCCCCC`, the T/C is, setting by setting: (dose: 50.0 mg/kg/injection, schedule: Q01DX001 (ip), vehicle: saline with Tween-80) 109 % of control; under setting [1], 104 % of control; under setting [2], 100 % of control.
As for `CCCCCCCCCCCCCCN1CCOCC1`, the T/C was 94 % of control (dose: 12.5 mg/kg/injection, schedule: Q01DX009 (ip), vehicle: saline); 100 % of control (dose: 25.0 mg/kg/injection, schedule: Q01DX009 (ip), vehicle: saline); 100 % of control and 98 % of control (dose: 50.0 mg/kg/injection, schedule: Q01DX009 (ip), vehicle: saline).
On to `C[N+](C)(C)NP(=O)(N[N+](C)(C)C)c1ccccc1`, for which the T/C was 100 % of control under setting [3], 106 % of control under setting [4] and 100 % of control under setting [5].
With `COC(C)C(O)(C(=O)OCC1=CC[N+]2([O-])CCC(O)C12)C(C)(C)O` (stereo not given), the T/C (dose: 100.0 mg/kg/injection, schedule: Q01DX005 (ip), vehicle: other) was 111 % of control; the T/C (dose: 100.0 mg/kg/injection, schedule: Q01DX005 (ip), vehicle: saline with Tween-80) is 104 % of control; the T/C (dose: 200.0 mg/kg/injection, schedule: Q01DX005 (ip), vehicle: other) was 102 % of control; the T/C (dose: 200.0 mg/kg/injection, schedule: Q01DX005 (ip), vehicle: saline with Tween-80) is 112 % of control; the T/C (dose: 400.0 mg/kg/injection, schedule: Q01DX005 (ip), vehicle: saline with Tween-80) was 107 % of control; the T/C (dose: 800.0 mg/kg/injection, schedule: Q01DX005 (ip), vehicle: other) was 111 % of control. The T/C was 117 % of control (dose: 800.0 mg/kg/injection, schedule: Q01DX005 (ip), vehicle: saline with Tween-80) and 112 % of control (dose: 1600.0 mg/kg/injection, schedule: Q01DX005 (ip), vehicle: saline with Tween-80).
For the compound `CCC1(O)CC2CN(CCc3c([nH]c4ccccc34)C(C(=O)OC)(c3cc4c(cc3OC)N(C)C3C(O)(C(=O)NCCSSCCNC(=O)C5(O)C(O)C6(CC)C=CCN7CCC8(c9cc(C%10(C(=O)OC)CC%11CN(CCc%12c%10[nH]c%10ccccc%12%10)CC(O)(CC)C%11)c(OC)cc9N(C)C58)C76)C(O)C5(CC)C=CCN6CCC43C65)C2)C1` (stereo not given), the T/C (dose: 0.1 mg/kg/injection, schedule: Q01DX009 (ip), vehicle: saline) is 166 % of control; the T/C (dose: 0.19 mg/kg/injection, schedule: Q04DX003 (ip), vehicle: saline) was 151 % of control; the T/C (dose: 0.2 mg/kg/injection, schedule: Q01DX009 (ip), vehicle: saline) is 202 % of control; the T/C (dose: 0.31 mg/kg/injection, schedule: Q04DX003 (ip), vehicle: saline) is 170 % of control; the T/C (dose: 0.38 mg/kg/injection, schedule: Q04DX003 (ip), vehicle: saline) is 183 % of control; the T/C (dose: 0.39 mg/kg/injection, schedule: Q04DX003 (ip), vehicle: saline) is 186 % of control. Also, the T/C (dose: 0.4 mg/kg/injection, schedule: Q01DX009 (ip), vehicle: saline) was 227 % of control; the T/C (dose: 0.63 mg/kg/injection, schedule: Q04DX003 (ip), vehicle: saline) was 190 % of control; the T/C (dose: 0.7 mg/kg/injection, schedule: Q04DX003 (ip), vehicle: saline) is 161 % of control; the T/C (dose: 0.75 mg/kg/injection, schedule: Q04DX003 (ip), vehicle: saline) was 209 % of control and 228 % of control; the T/C (dose: 1.0 mg/kg/injection, schedule: Q04DX003 (ip), vehicle: saline) was 212 % of control; the T/C (dose: 1.25 mg/kg/injection, schedule: Q04DX003 (ip), vehicle: saline) is 208 % of control. In addition, the T/C was 231 % of control (dose: 1.6 mg/kg/injection, schedule: Q04DX003 (ip), vehicle: saline); 119 % of control (dose: 2.4 mg/kg/injection, schedule: Q04DX003 (ip), vehicle: saline); 236 % of control (dose: 2.5 mg/kg/injection, schedule: Q04DX003 (ip), vehicle: saline).
Take `O=C(CNC(=O)c1ccc(Cl)cc1Cl)N/N=C/c1cccc([N+](=O)[O-])c1`: the T/C (dose: 3.13 mg/kg/injection, schedule: Q01DX009 (ip), vehicle: saline with Tween-80) was 91 % of control; the T/C (dose: 6.25 mg/kg/injection, schedule: Q01DX009 (ip), vehicle: saline with Tween-80) was 92 % of control; the T/C (dose: 12.5 mg/kg/injection, schedule: Q01DX009 (ip), vehicle: saline with Tween-80) was 106 % of control.
Turning to `COC1OCC(N=[N+]=[N-])C(O)C1O` (stereo not given), the T/C is, setting by setting: (dose: 25.0 mg/kg/injection, schedule: Q01DX005 (ip), vehicle: saline) 98 % of control; (dose: 50.0 mg/kg/injection, schedule: Q01DX005 (ip), vehicle: saline) 102 % of control; (dose: 100.0 mg/kg/injection, schedule: Q01DX005 (ip), vehicle: saline) 100 % of control; (dose: 200.0 mg/kg/injection, schedule: Q01DX005 (ip), vehicle: saline) 102 % of control.
Take `Nc1ccc2c(-c3ccccc3)cc(=O)[nH]c2c1`: the T/C by setting is: (dose: 50.0 mg/kg/injection, schedule: Q01DX005 (ip), vehicle: Klucel (hydroxypropylcellulose) (HPC)) 95 % of control; (dose: 100.0 mg/kg/injection, schedule: Q01DX005 (ip), vehicle: Klucel (hydroxypropylcellulose) (HPC)) 100 % of control.
Regarding `CC(=O)C(C(C)=O)[N+](=O)[O-].CC(=O)C(C(C)=O)[N+](=O)[O-].[Cu]`, the T/C runs as follows: (dose: 6.25 mg/kg/injection, schedule: Q01DX005 (ip), vehicle: saline with Tween-80) 100 % of control; (dose: 12.5 mg/kg/injection, schedule: Q01DX005 (ip), vehicle: saline with Tween-80) 105 % of control.
With `COc1ccc([N+](=O)[O-])cc1Br`, the T/C was 100 % of control under setting [6]; 100 % of control (dose: 200.0 mg/kg/injection, schedule: Q01DX009 (ip), vehicle: saline with Tween-80); 100 % of control (dose: 400.0 mg/kg/injection, schedule: Q01DX009 (ip), vehicle: saline with Tween-80).
For `CN(C)c1ccc2c(NCCCCCCNc3ccnc4cc(N(C)C)ccc34)ccnc2c1`, the T/C is 116 % of control (dose: 1.56 mg/kg/injection, schedule: Q01DX009 (ip), vehicle: distilled water + alcohol); 120 % of control (dose: 6.25 mg/kg/injection, schedule: Q01DX009 (ip), vehicle: distilled water + alcohol); 150 % of control and 152 % of control (dose: 12.5 mg/kg/injection, schedule: Q01DX009 (ip), vehicle: distilled water + alcohol); 174 % of control (dose: 25.0 mg/kg/injection, schedule: Q01DX009 (ip), vehicle: distilled water + Tween-80 + alcohol); 168 % of control (dose: 50.0 mg/kg/injection, schedule: Q01DX009 (ip), vehicle: distilled water + alcohol).
Take `CNC(=S)N/N=C/c1nc2ccccc2c(=O)n1-c1ccc(Cl)cc1`: the T/C is, setting by setting: under setting [1], 102 % of control; under setting [2], 98 % of control; (dose: 400.0 mg/kg/injection, schedule: Q01DX001 (ip), vehicle: saline with Tween-80) 92 % of control.
Take `CCOC1C(=O)C=COC1C(C)C` (stereo not given): the T/C was 108 % of control under setting [3], 104 % of control under setting [4] and 110 % of control under setting [5].
`O=N[O-].O=N[O-].[NH-]CC[NH-].[Pt+2]`: the T/C runs as follows: (dose: 25.0 mg/kg/injection, schedule: Q01DX009 (ip), vehicle: saline with Tween-80) 95 % of control; (dose: 50.0 mg/kg/injection, schedule: Q01DX009 (ip), vehicle: saline with Tween-80) 100 % of control; under setting [6], 95 % of control.
On to `COc1cc([C@@H]2c3cc4c(cc3C[C@@H]3COC(=O)C32)OCO4)cc(OC)c1O` (stereo not given in full), for which the T/C is, setting by setting: (dose: 60.0 mg/kg/injection, schedule: Q01DX005 (ip), vehicle: saline with Tween-80) 100 % of control and 120 % of control; (dose: 240.0 mg/kg/injection, schedule: Q01DX005 (ip), vehicle: saline with Tween-80) 107 % of control.
